Residues, ends and D or L forms follow the SMILES beside them. *: point of attachment. Cbz = O=C(OCc1ccccc1)*
Columns and labels:
[1] = tested on: HA-polyubiquitylated proteins; experiment: UV-induced degradation of HA-polyubiquitylated proteins (anti-HA Western blot); format: cell-based, human; conditions: A-T cells; 50 nM Bafl
[2] = tested on: autophagosomes and autophagolysosomes; experiment: Cyt-ID and LysoTracker Red staining of autophagosomes, lysosomes and autophagolysosomes; format: cell-based, human; conditions: for fusion between autophagosomes and lysosomes: Bafl 1 nM 18 h; for mean # of green dots/cell (autophagosomes) / mean # of yellow dots/cell (autophagolysosomes): A-T/control shRNA cells, bafilomycin treated
Method: Autophagasome, lysosome and autophagolysosomes staining. Cells (100,000/point) were cultured on fibronectin-coated glass coverslips. Cells were treated with autophagy inhibitor Bafl (1 nM) (Sigma-Aldrich) for 18 hr. Cells were then exposed to UV radiation and allowed to recover in the presence of inhibitors for 3 h. Cells were then washed (2×1 min) with PBS and co-stained with Cyt-ID® (Cyt-ID® Autophagy Detection Kit from Enzo Lifesciences; Farmingdale, NY) and Lyso Tracker® Red DND-99 (Invitrogen) for 30 min at 37° C. in a CO2 incubator following manufacturer's protocol. Stained cells were then washed (2×1 min) with PBS and fixed with 4% paraformaldehyde for 20 min at room temperature. After washing with PBS (3×10 min), cells were mounted on slides in anti-fade mounting medium with DAPI (Invitrogen). Images were taken using a 63× oil immersion objective with a Leica DMRA2 upright microscope run through SlideBook software (Intelligent Imaging Innovations).
Autophagic flux was also monitored using Cyto-ID® and LysoTrack Red dyes. A-T and ATM+ cells were treated with Bafl (1 nM for 18 h) and then exposed to UV (25 mJ/m2) as indicated. Three hours after recovery in the presence of inhibitors, cells were co-stained with Cyt-ID® and LysoTracker Red® dyes. Fluorescence images of Cyt-ID® and LysoTracker Red® stained cells were made (Color images not shown). Green (autophagosomes; from Cyt-TD®-stained panels), red (lysosomes; from LysoTracker Red-stained panels), and yellow (autophagolysosomes; from merged panels) dots in A-T and ATM+ cells were counted manually using the ImageJ plug-in Cell Counter. Mean number of dots/cell is shown in FIGS. 11A and 11B, respectively. In FIGS. 11A and 11B, the number of autophagosomes (green dots) is represented by stippled bars; the number of lysosomes (red dots) is presented by lined bar; and the number of autophagolysosomes (yellow dots) is represented by clear (white) bars.
Bafilomycin inhibits autophagy at a late stage (47). Whether 3-methyl adenine (3-MA), an autophagy inhibitor known to inhibit autophagy at early stage by inhibiting formation of autophagosomes (56), could block UV-induced autophagic flux was tested in A-T/LV-control shRNA cells. Using Cyto-ID® and LysoTrack Red dyes as described herein in FIGS. 9A, 9B, 11A and 11B, the same criteria were used to judge autophagic activity in immunofluorescence analysis as described for FIGS. 11A and 11B.
The effect of 3-MA on UV-induced autophagic flux was tested in A-T/LV-ISG15 shRNA cells. A-T/LV-ISG15 shRNA cells were either left untreated or treated with 3-MA (10 nM for 18 h), and cells were then exposed to UV (25 mJ/m2). Three hours after recovery in the presence of the inhibitor, cells were co-stained with Cyt-ID® and LysoTracker Red® dyes. Fluorescence images of Cyt-ID® and LysoTracker Red® stained cells were made.

[3] = tested on: polyubiquitylated proteins; experiment: UV-induced degradation of polyubiquitylated proteins in organotypic cerebellar brain slices; format: cell-based, mice; conditions: Bafilomycin A1 18 hrs, UV 150 mJ
Method: Experiments were conducted to determine if UV would induce degradation of the ubiquitin-conjugated cellular proteins in A-T organotypic brain slices grown in culture, similar to the findings described herein for A-T cells (See FIGS. 8A-8B). Two-month-old mice were used irrespective of the gender. Cerebellar organotypic brain slices (400 μm thick) from three mice were obtained using a McIlwain tissue chopper (The Mickle Lab Eng. Co. Ltd). Slices from two A-T mice and three ATM+/− mice were pooled and randomly placed on Millicell culture plate inserts (Millipore, MA). Brain slices were then incubated for 1 day in OptiMem-based medium at 37° C. in a humidified atmosphere of 5% CO2 and 95% air. One day later, slices were treated with Bafilomycin A1 for 18 hrs. Slices were then exposed to UV (150 mJ)) or left untreated. After three hours, tissue lysates were prepared as described herein. Lysates were then analyzed by Western analysis using anti-ubiquitin antibody as described herein, and the results shown in FIG. 17A. Intensity of the total polyubiquitylated proteins and free ubiquitin was quantitated using BioRad Quantity One software. All control values (−UV and +Bafl) were normalized to 100%, and values for experimental treatments were expressed as percent variations over control to give the results shown in FIG. 17B. […]

LC3 = experiment: UV-induced LC3 degradation in organotypic cerebellar brain slices; format: cell-based, mice
Method: In FIG. 19B, LC3 degradation in UV-treated A-T brain slices is shown. The same tissue lysates prepared from A-T and ATM+/− brains used in FIG. 17A were analyzed for LC3 and actin proteins. Intensity of the total LC3 and corresponding actin bands was quantitated using BioRad Quantity One software. The percent changes in LC3 amounts were calculated as a ratio between band intensities of LC3 (I and II) and actin (bar chart). In FIGS. 19A and 19B, the bar graphs have the following legends: bars 1: No drug and +Bafl controls; bars 2: +UV; and bars 3: +Bafl+UV.

p53 = p53 turnover with CHX with or without MG132; format: cell-based, human; conditions: ATM+ cells, MG132 10 μM, CHX 10 μg/ml, 6 hours
Method: Both p53 and STAT3 are known targets of the ubiquitin/26S proteasome pathway. To determine whether steady state level of these proteins is regulated by ATM, turnover of both p53 and STAT3 were measured. In FIG. 2C, FT169A (A-T) and FT169A (ATM+) cells were treated with the protein synthesis inhibitor CHX (10 μg/ml) in the presence (lanes 3 and 6) or absence (lanes 2 and 5) of the proteasome inhibitor MG132 (10 μM) for 6 hours. Cell lysates were analyzed by immunoblotting using an anti-p53 antibody (upper row). The intensity of the p53 bands was measured using a Kodak Image station 2000R […]. Results are shown in the bar graph (right panel). The filter used for immunoblotting was stained with Ponceau S to assure equal protein loading (lower row). […] By contrast, p53 protein was rapidly degraded within 6 hours of CHX treatment in FT169A (ATM+) cells (FIG. 2C, lanes 4 and 5, and bar graph for p53 band quantization).

| Structure (SMILES) | UV-induced degradation of cellular proteins [1] | fusion between autophagosomes and lysosomes ([2]; A-T cells) | mean # of green dots/cell (autophagosomes) ([2]; with UV) | mean # of yellow dots/cell (autophagolysosomes) ([2]; with UV) | mean # of green dots/cell (autophagosomes) ([2]; without UV) | mean # of yellow dots/cell (autophagolysosomes) ([2]; without UV) | fusion between autophagosomes and lysosomes ([2]; ATM+ cells) | UV-mediated degradation of polyubiquitylated proteins ([3]; A-T brain slices) | UV-induced degradation of polyubiquitylated proteins ([3]; ATM+/− brain slices) | aberrant autophagic flux (degradation) of autophagy substrates under genotoxic stress (LC3; A-T cerebellar brain slices) | UV-induced autophagic flux (LC3 degradation) (LC3; ATM+/− cerebellar slices) | turnover of p53 in the presence of CHX (p53) |
| --- | --- | --- | --- | --- | --- | --- | --- | --- | --- | --- | --- | --- |
| CO/C1=C\C(C)=C\[C@@H](C)[C@@H](O)[C@@H](C)C/C(C)=C/C=C/[C@H](OC)[C@@H]([C@@H](C)[C@@H](O)[C@H](C)[C@@]2(O)C[C@@H](O)[C@H](C)[C@@H](C(C)C)O2)OC1=O [Bafilomycin A1] | failed to protect | failed to do so | 0.8 dots/cell | 1.5 dots/cell | 6 dots/cell | 5.8 dots/cell | blocked fusion | failed to protect | markedly protected | resistant | protected |  |
| CC(C)C[C@@H](C=O)NC(=O)[C@H](CC(C)C)NC(=O)[C@H](CC(C)C)NC(=O)OCc1ccccc1 [MG132] (Cbz-Leu-Leu-Leu-aldehyde) |  |  |  |  |  |  |  |  |  |  |  | blocked |
